In brackets after ≈: the same amount, converted by molar mass.

Test [1] concerns the target T1, CD11b/CD18 (Homo sapiens, UniProt P11215).
T1 construct: expressed in transfected cells; host or cells: JY (human B lymphoblastoid) cells
The experiment in a line: Adhesion of JY/CD11b cells to immobilized iC3b. The conditions noted are these: dose-dependent; relative to control DMSO treatment. It is filed as cell-based. As to the method: B. Adhesion Assay of JY/CD11b Cells to Immobilized iC3b
Briefly, each well of a 96-well plate was coated overnight at 4° C. with 50 μl glycophorin (10 μg/ml), iC3b (5 μg/ml) or with anti-CD18 monoclonal antibody (22F12C, 5 μg/ml) and anti-CD11b monoclonal antibody (44AACB, 5 µg/ml) in bicarbonate buffer (pH 9.6). Plates were blocked with human serum albumin in D-PBS for one hr at room temperature. JY cells transfected with CD11b (JY/CD11b cells) (100 μl at 1×10^6 cells/ml) in adhesion buffer were added to each well and incubation was carried out at 37° C. for 30 min. Plates were fixed and analyzed as described above in Example 1. Percentage of cells binding was determined using the equation below. [formula]
Data was normalized using the formula: [formula]

Test [2] has as its target T2, Rac1 (Homo sapiens, UniProt P63000).
T2 construct: GST (cleaved yes); made in house; host or cells: E. coli
Nature of the test: Tiam1-catalyzed guanine nucleotide exchange of Rac1. The conditions noted are these: in the presence of Tiam1; read-out: IC50, Rac1 guanine nucleotide exchange reaction. It is filed as biochemical. As to the method:
Rac1 was expressed in E. coli as a GST fusion protein using the vector pGEX2T in accordance with previously described methods [Self and Hall, Meth. Enzymol. 256:3 (1995)]. Purified thrombin-cleaved Rac1 protein was used in the assay.
The Tiam1 DH-PH domain expressed as a fusion protein containing a carboxy terminal 6XHis tag using the plasmid pET28a described by Rossman and Campbell, Meth. Enzymol. 325:25 (2000).
The Tiam1-catalyzed exchange of GDP for GTP of Rac1 was carried out essentially according to the procedure described by Crompton et al., J. Biol.Chem. 275(33):25751 (2000). GDP-bound Rac1 was incubated with [α^32P]-labeled GTP, in the presence of Tiam1 and nucleotide exchange was monitored by following the increase in radioactivity bound to Rac1. Free radioactivity was removed by placing the reaction mixture in the well of a 96-well plate and filtering out the fraction of [α^32P]GTP that is not bound to Rac1. During the screen for the nucleotide exchange antagonists, the compounds were used at 10 μM concentration. The compounds analyzed by the screening methods are further described below.
Compounds that inhibit the Rac1 guanine nucleotide exchange reaction by at least 50% of the control were obtained. The IC50 value of several of the compounds were determined for the guanine nucleotide exchange reaction of Rac1, in the presence of Tiam1.

Test [3] concerns permeable tolC strain (plasmid only). The experiment in a line: microbe, parasite or virus in culture. It counts as cell-based, E. coli. The conditions noted are these: Escherichia coli, read-out: MIC, control strain. As for the experimental part:
(§1) A permeable bacteria] strain (AB734 TN10::tolC) was used in the screening method to maximize the ability of the compounds to cross the gram negative cell wall. Assays were conducted in accordance with the NCCLS protocols referenced herein.
(§2) It was of further interest to determine whether those compounds with antimicrobial activity worked in a ENR-dependent fashion. Two strains of the permeable tolC strain were constructed. In the first strain, the ENR protein was overexpressed by placing it under control of its own promoter on a moderate copy number plasmid, and the second strain served as a control including only the plasmid.

The test system of test [4] is permeable tolC strain overexpressing ENR. The experiment in a line: microbe, parasite or virus in culture. It counts as cell-based, E. coli. The conditions noted are these: Escherichia coli, read-out: MIC, ENR-overexpressing strain. As for the experimental part: as §1, §2
The target of test [5] is T3, ftsZ (Escherichia coli, UniProt P0A9A6). The experiment in a line: ftsZ GTPase assay. It is filed as biochemical. As for the experimental part: An alternative assay that may be more sensitive was also devised. In this assay, 100 μg/ml ftsZ was incubated with 0.5 μM ^32P-γ-GTP. The GTPase activity of ftsZ liberates ^32PO4. By terminating the reaction with 25 mg/ml activated charcoal in 100 mM NaH2PO4 and centrifuging the product, the remaining ^32P-γ-GTP is trapped by the charcoal. Accordingly, the ^32PO4 that remains in the supernatant can be measured, providing a measurement of GTPase inhibition.

Test [6] has as its target T3, ftsZ. The experiment in a line: ftsZ polymerization assay. It is filed as biochemical. The conditions noted are these: read-out: IC50, ftsZ polymerization screen. As to the method: A polymerization assay for the identification of ftsZ inhibitors that can be performed in microtiter wells has been devised. The polymerization assay is an adaptation of a tubulin polymerization assay [Bollag et al., Cancer Research 55:2325-2333 (1995)], and involves the reversible polymerization of ftsz in a GTP-dependent fashion.
In the presence of GTP and 10 mM CaCl2, 5 nm ftsZ linear polymers assemble into higher order polymers [Yu et al., EMBO 16:5455-5463 (1997)] that are large enough to be trapped by a 0.2 μm filter. The protein that is retained on the filter can be stained and detected in a colorimetric assay. A reaction consisting of 300 μg/ml of ftsZ polymerized by 100 μM GTP was screened against candidate ftsZ inhibitors at 10 μM.

T3 sequence (P0A9A6 whole entry): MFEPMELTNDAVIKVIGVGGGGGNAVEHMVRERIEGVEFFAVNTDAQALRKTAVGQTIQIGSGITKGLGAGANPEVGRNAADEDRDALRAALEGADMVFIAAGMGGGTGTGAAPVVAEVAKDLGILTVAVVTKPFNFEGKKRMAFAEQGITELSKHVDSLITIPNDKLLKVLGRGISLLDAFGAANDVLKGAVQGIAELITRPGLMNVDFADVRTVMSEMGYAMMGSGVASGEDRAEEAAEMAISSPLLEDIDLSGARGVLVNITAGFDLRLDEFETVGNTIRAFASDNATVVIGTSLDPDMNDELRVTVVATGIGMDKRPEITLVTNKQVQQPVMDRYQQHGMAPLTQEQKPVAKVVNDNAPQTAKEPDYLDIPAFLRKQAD

Turning to `O=[N+]([O-])c1cc(Cl)c(Sc2ccc(Cl)cc2Cl)cc1F` [Cmpd C], the “stimulation of CD11b/CD18 binding to iC3b” value (from here on “stimulation”) in test [1] is given as “two times”.

Regarding `CCCCC(CCCC)N(C(=O)CN1CC(c2ccc3c(c2)OCO3)C(C)C1C(C)(C)CCCC)c1ccc(F)c(C)c1` (stereo not drawn) [Cmpd H], in test [1], the “stimulation” value is “two times”.

A word on the IC50: it is the concentration at which inhibition is half-maximal. For `CC(C)Sc1ccc(-c2ccnc(N3CCCC(C)(C)C3)c2)cc1C(F)(F)F` [Cmpd AAB], in test [2], the 50% inhibitory concentration (IC50) was found to be 4.7 µM.

On to `CN(CCCNCc1ccccc1Sc1c(Cl)cccc1Cl)c1ccccc1` [Cmpd AY], for which the concentration for half-maximal inhibition (IC50) in test [2] stood at 1.9 µM.

For `CC(C)Sc1ccc(-c2ccnc(N3CCC(NC(=O)OC(C)(C)C)CC3)c2)cc1C(F)(F)F` [Cmpd AAC], the IC50 in test [2] is 5 µM.

Turning to `CN(CCCNCc1ccccc1Sc1cc(Cl)cc(Cl)c1)c1ccccc1` [Cmpd AZ], the 50% inhibitory concentration (IC50) in test [2] was found to be 3.1 µM.

Consider `CCCCC(CCCC)N(C(=O)CN1CC(c2ccc3ccccc3c2)C(C(=O)O)C1c1ccc(OC)cc1)c1ccc(F)c(C)c1` (stereo not drawn) [Cmpd I], for which, in test [1], the “stimulation” value is on record as “two times”.

Regarding `Oc1cc(Cl)ccc1Oc1ccc(Cl)cc1Cl` [triclosan], the MIC in test [3] is 0.031 µg/mL (≈ 0.107 µM); in test [4], 1 µg/mL (≈ 3.45 µM).

For the compound `Nc1nc2c(ncn2[C@@H]2O[C@H](COP(=O)(O)OP(=O)(O)O)[C@@H](O)[C@H]2O)c(=O)[nH]1` [GDP], the IC50 in test [5] stood at 8 µM; in test [6] it was 250 µM.

For `CSc1ccc(-c2ccnc(N3CCC(C)CC3)c2)cc1C(C)(F)F` [Cmpd AAA], the IC50 in test [2] was found to be 3.5 µM.

These data come from patent US20030088061A1, “Materials and methods to modulate ligand binding/enzymatic activity of alpha/beta proteins containing an allosteric regulatory site” (priority 2000, published 2003).
